# Counter-ions that a name gives are not always drawn. Like-named read-outs stand apart in the source and are kept apart here.
# How the values were obtained:
# [1] = human epidermis, buffer pH of 7.4; cited from earlier work
# [2] = epidermis (ref 18) vs PermeaPad, no CD
# [3] = From the text: To this end, the phase distribution approach fully described in [17] was applied. […] It is evident that, in the presence of cyclodextrins, the distribution coefficient of the compound can be described by the following equation:(3) DappOrg/(buf+CD)=C2Org(drug)/C2buf(drug)+C2buf(drug•CD) where DappOrg/(buf+CD) is the distribution coefficient of the drug in the presence of CD, C2Org and C2buf are the drug concentrations in the organic and aqueous phases, respectively, and C2buf(drug•CD) is the concentration of the drug/cyclodextrin complex in the aqueous phase of the distribution system. As follows from Equation (3), the association constant of the complex can be derived from DappOrg/buf and DappOrg/(buf+CD) at specific CD concentrations using Equation (4). (4) DappOrg/(buf+CD)/DappOrg/buf=1+KC⋅CCD
# It can be performed by plotting the following dependence:(5) log(DappOrg/buf−DappOrg/(buf+CD)/DappOrg/buf)=log(KC)+α⋅log(CCD)
# [4] = RC vs PP, no CD
# Experimental: The permeability coefficients of NTT•HCl were determined in the absence and in the presence of cyclodextrins (HP-β-CD and SBE-β-CD) in the donor solution. A model artificial regenerated cellulose membrane MWCO 12–14 kDa (Standard Grade RC Dialysis Membrane, Flat Width 45 mm) (RC) or a biomimetic PermeaPad barrier (PHABIOC, Germany, www.permeapad.com (accessed on 1 February 2023)) (PP) were placed between the donor and receptor compartments of a vertical type Franz diffusion cell (PermeGear, Inc., Hellertown, PA, USA) with 7 mL/1 mL volumes for the donor and acceptor solutions. The cyclodextrin concentrations were 0.0115 M, 0.025 M and 0.035 M when the RC membrane was used and only 0.035 M in case of the PP barrier. Two different pH values (pH of 4.0 and pH of 6.8) were applied in the donor solution, whereas the receptor chamber was filled with a buffer with a pH of 7.4, modeling the compound’s diffusion to the blood plasma in all the experiments. […] Samples with a volume of 0.5 mL for the receptor solution were withdrawn every 30 min for 5 h and analyzed with a spectrophotometer (Spectramax 190; Molecular Devices Corporation, San Jose, CA, USA) in 96-well UV black plates (Costar, Washington, DC, USA) at a wavelength of 239 nm.
# The permeability coefficient was calculated using the NTT•HCl concentration in the donor solution (C0), as follows:(7) Papp=J/C0
# [5] = cited from earlier work
# [6] = 37 °C
# Experimental: The ∆logD parameter of Seiler was calculated for a single CD concentration in the aqueous phase, equal to 0.0115 M for both HP-β-CD and SBE-β-CD, as follows:(2) ΔlogD=logDappoct/buf−logDapphex/buf
# [7] = for distribution coefficient lower than that of AMT•HCl: AMT•HCl values from ref 14; for distribution coefficient higher at buffer pH of 6.8 than at pH of 4.0: no CD; for Dapp hex/buf / Dapp oct/buf / logDapp hex/buf / logDapp oct/buf: 37 °C
# Experimental: The apparent distribution coefficients of NTT•HCl ( DappOrg/buf ) in the 1-octanol/buffer ( Dappoct/buf ) and n-hexane/buffer ( Dapphex/buf ) systems were measured at 37 °C via the standard shake-flask method using mutually saturated organic and aqueous solvents, as reported in our earlier studies. The experimental procedure was partially modified in the case of cyclodextrins (both HP-β-CD and SBE-β-CD) in the aqueous phase of the distribution system. Following the respective literature, in the present study, we prepared 1-octanol or n-hexane saturated with a buffer and a buffer saturated with 1-octanol and n-hexane. Three cyclodextrin concentrations (0.0115 M, 0.025 M and 0.035 M) in the aqueous phase were introduced. For the 1-octanol/buffer distribution, the examined solution of NTT•HCl was prepared in 1-octanol saturated with a buffer (C ~ 2 × 10^−3 M), whereas for the n-hexane/buffer system, it was prepared in a buffer saturated with n-hexane (C ~ 2 × 10^−3 M). Taking into account the obtained values of NTT•HCl solubility in the organic solvents and aqueous buffers, equal volumes of the 1-octanolic and buffer phases were prepared, whereas the n-hexane/buffer ratio was 12:2. Two pH values of the aqueous phases were examined: a pH of 4.0 and a pH of 6.8, simulating different segments of the gastro-intestinal tract. The respective volumes of the phases were placed into glass vials and equilibrated in an air thermostat for 3 days at 37 °C. Then, the phases were separated after at least 6 h of storage. The concentrations in both phases were measured using a UV–Vis spectrophotometer (Cary-50, USA Cary-50 Varian, Palo Alto, CA, USA, Software Version 3.00 (339)) with the help of the calibration curves. Each distribution test was carried out at least three times.
# The distribution coefficients ( DappOrg/buf ) were determined, taking into account the compound concentrations in the organic ( C2Org ) and buffer ( C2buf ) phases and the volumes of the buffer ( Vbuf ) and organic ( VOrg ) phases:(1) DappOrg/buf=C2Org⋅V^buf/C2buf⋅V^Org
# [8] = parameters: method as in doi:10.1016/j.molliq.2022.120801; settings: RC vs PP; cited from earlier work
structure (smiles),measurement,setting,value
"CNCCC=C1c2ccccc2CCc2ccccc21 [NTT•HCl, Nortriptyline hydrochloride]",coefficient of permeability through epidermis,[1],0.36 × 10^−6
same,greater resistance of the epidermis than that of the PermeaPad barrier,[2],67 fold
same,"KC, association constant of the NTT•HCl/cyclodextrin complex","[3]; HP-β-CD, aqueous phase pH of 4.0, 37 °C",1.13 ± 0.02 M⁻¹
same,"KC, association constant of the NTT•HCl/cyclodextrin complex","[3]; HP-β-CD, aqueous phase pH of 6.8, 37 °C",2.01 ± 0.05 M⁻¹
same,"KC, association constant of the NTT•HCl/cyclodextrin complex","[3]; SBE-β-CD, aqueous phase pH of 4.0, 37 °C",1.14 ± 0.02 M⁻¹
same,"KC, association constant of the NTT•HCl/cyclodextrin complex","[3]; SBE-β-CD, aqueous phase pH of 6.8, 37 °C",2.24 ± 0.03 M⁻¹
same,difference between the coefficients of permeability through the PP and RC,[4],1.6 fold
same,pKa,[5],9.23
same,∆logD,"[6]; pH 4.0, 0.0115 M HP-β-CD",1.82
same,∆logD,"[6]; pH 4.0, 0.0115 M SBE-β-CD",1.79
same,∆logD,"[6]; pH 4.0, no CD",2.85
same,∆logD,"[6]; pH 6.8, 0.0115 M HP-β-CD",2.48
same,∆logD,"[6]; pH 6.8, 0.0115 M SBE-β-CD",2.23
same,∆logD,"[6]; pH 6.8, no CD",2.76
same,distribution coefficient lower than that of AMT•HCl,[7]; 1-octanol/buffer pH of 4.0,7 fold
same,distribution coefficient lower than that of AMT•HCl,[7]; 1-octanol/buffer pH of 6.8,13 fold
same,distribution coefficient higher at buffer pH of 6.8 than at pH of 4.0,[7]; 1-octanol/buffer,1.33 fold
same,distribution coefficient higher at buffer pH of 6.8 than at pH of 4.0,[7]; n-hexane/buffer,1.61 fold
same,Dapp hex/buf,"[7]; pH 4.0, 0.0115 M HP-β-CD",(4.6 ± 0.1) × 10^−3
same,Dapp oct/buf,"[7]; pH 4.0, 0.0115 M HP-β-CD",0.299 ± 0.008
same,logDapp hex/buf,"[7]; pH 4.0, 0.0115 M HP-β-CD",−2.34
same,logDapp oct/buf,"[7]; pH 4.0, 0.0115 M HP-β-CD",−0.52
same,Dapp hex/buf,"[7]; pH 4.0, 0.0115 M SBE-β-CD",(3.3 ± 0.1) × 10^−3
same,Dapp oct/buf,"[7]; pH 4.0, 0.0115 M SBE-β-CD",0.204 ± 0.005
same,logDapp hex/buf,"[7]; pH 4.0, 0.0115 M SBE-β-CD",−2.48
same,logDapp oct/buf,"[7]; pH 4.0, 0.0115 M SBE-β-CD",−0.69
same,Dapp oct/buf,"[7]; pH 4.0, 0.025 M HP-β-CD",0.154 ± 0.003
same,logDapp oct/buf,"[7]; pH 4.0, 0.025 M HP-β-CD",−0.81
same,Dapp oct/buf,"[7]; pH 4.0, 0.025 M SBE-β-CD",0.086 ± 0.001
same,logDapp oct/buf,"[7]; pH 4.0, 0.025 M SBE-β-CD",−1.07
same,Dapp oct/buf,"[7]; pH 4.0, 0.035 M HP-β-CD",0.101 ± 0.001
same,logDapp oct/buf,"[7]; pH 4.0, 0.035 M HP-β-CD",−1.0
same,Dapp oct/buf,"[7]; pH 4.0, 0.035 M SBE-β-CD",0.013 ± 0.000
same,logDapp oct/buf,"[7]; pH 4.0, 0.035 M SBE-β-CD",−1.89
same,Dapp hex/buf,"[7]; pH 4.0, no CD",(5.6 ± 0.2) × 10^−3
same,Dapp oct/buf,"[7]; pH 4.0, no CD",4.159 ± 0.080
same,logDapp hex/buf,"[7]; pH 4.0, no CD",−2.23
same,logDapp oct/buf,"[7]; pH 4.0, no CD",0.62
same,Dapp hex/buf,"[7]; pH 6.8, 0.0115 M HP-β-CD",(8.7 ± 0.1) × 10^−3
same,Dapp oct/buf,"[7]; pH 6.8, 0.0115 M HP-β-CD",2.613 ± 0.022
same,logDapp hex/buf,"[7]; pH 6.8, 0.0115 M HP-β-CD",−2.06
same,logDapp oct/buf,"[7]; pH 6.8, 0.0115 M HP-β-CD",0.42
same,Dapp hex/buf,"[7]; pH 6.8, 0.0115 M SBE-β-CD",(8.6 ± 0.3) × 10^−3
same,Dapp oct/buf,"[7]; pH 6.8, 0.0115 M SBE-β-CD",1.443 ± 0.040
same,logDapp hex/buf,"[7]; pH 6.8, 0.0115 M SBE-β-CD",−2.07
same,logDapp oct/buf,"[7]; pH 6.8, 0.0115 M SBE-β-CD",0.16
same,Dapp oct/buf,"[7]; pH 6.8, 0.025 M HP-β-CD",1.993 ± 0.030
same,logDapp oct/buf,"[7]; pH 6.8, 0.025 M HP-β-CD",0.30
same,Dapp oct/buf,"[7]; pH 6.8, 0.025 M SBE-β-CD",0.364 ± 0.011
same,logDapp oct/buf,"[7]; pH 6.8, 0.025 M SBE-β-CD",−0.44
same,Dapp oct/buf,"[7]; pH 6.8, 0.035 M HP-β-CD",1.395 ± 0.025
same,logDapp oct/buf,"[7]; pH 6.8, 0.035 M HP-β-CD",0.15
same,Dapp oct/buf,"[7]; pH 6.8, 0.035 M SBE-β-CD",0.227 ± 0.006
same,logDapp oct/buf,"[7]; pH 6.8, 0.035 M SBE-β-CD",−0.64
same,Dapp hex/buf,"[7]; pH 6.8, no CD",(9.5 ± 0.2) × 10^−3
same,Dapp oct/buf,"[7]; pH 6.8, no CD",5.537 ± 0.111
same,logDapp hex/buf,"[7]; pH 6.8, no CD",−2.02
same,logDapp oct/buf,"[7]; pH 6.8, no CD",0.74
"CN(C)CCC=C1c2ccccc2CCc2ccccc21.Cl [AMT•HCl, amitryptiline hydrochloride]",difference between the coefficients of permeability through the PP and RC,[8],4.0 fold
